Laboratory results taken from the NIST ThermoML archive (doi:10.1021/je800527p).

Assay: mn = molality of the nth substance listed, in mol/kg
Details: 101 kPa, Liquid

NCC(=O)N[C@@H](CO)C(=O)NCC(=O)O [glycyl-L-serylglycine] + O
Details | mass density [kg/m3]
288.15 K, m1 = 0.03014 | 1001.82
288.15 K, m1 = 0.03542 | 1002.28
288.15 K, m1 = 0.04107 | 1002.79
288.15 K, m1 = 0.04543 | 1003.18
288.15 K, m1 = 0.05019 | 1003.61
288.15 K, m1 = 0.05524 | 1004.05
288.15 K, m1 = 0.06026 | 1004.51
288.15 K, m1 = 0.06526 | 1004.95
298.15 K, m1 = 0.025 | 999.264
298.15 K, m1 = 0.0306 | 999.768
298.15 K, m1 = 0.03505 | 1000.16
298.15 K, m1 = 0.04024 | 1000.61
298.15 K, m1 = 0.04521 | 1001.05
298.15 K, m1 = 0.05166 | 1001.62
298.15 K, m1 = 0.05493 | 1001.9
298.15 K, m1 = 0.0598 | 1002.34
298.15 K, m1 = 0.06564 | 1002.84
303.15 K, m1 = 0.02533 | 997.881
303.15 K, m1 = 0.02992 | 998.289
303.15 K, m1 = 0.03496 | 998.733
303.15 K, m1 = 0.0453 | 999.64
303.15 K, m1 = 0.05003 | 1000.05
303.15 K, m1 = 0.0555 | 1000.53
303.15 K, m1 = 0.06095 | 1001
303.15 K, m1 = 0.06473 | 1001.34
313.15 K, m1 = 0.02969 | 994.793
313.15 K, m1 = 0.03329 | 995.098
313.15 K, m1 = 0.03976 | 995.655
313.15 K, m1 = 0.04401 | 996.025
313.15 K, m1 = 0.04969 | 996.506
313.15 K, m1 = 0.05419 | 996.891
313.15 K, m1 = 0.05935 | 997.32
313.15 K, m1 = 0.06498 | 997.808

NCC(=O)N[C@@H](Cc1ccc(O)cc1)C(=O)NCC(=O)O [glycyl-L-tyrosylglycine] + O
Details | mass density [kg/m3]
288.15 K, m1 = 0.01708 | 1000.85
288.15 K, m1 = 0.01938 | 1001.08
288.15 K, m1 = 0.02117 | 1001.26
288.15 K, m1 = 0.023 | 1001.45
288.15 K, m1 = 0.02384 | 1001.53
288.15 K, m1 = 0.02504 | 1001.65
288.15 K, m1 = 0.02575 | 1001.72
288.15 K, m1 = 0.02705 | 1001.85
288.15 K, m1 = 0.0279 | 1001.95
288.15 K, m1 = 0.02909 | 1002.06
303.15 K, m1 = 0.01685 | 997.325
303.15 K, m1 = 0.01781 | 997.42
303.15 K, m1 = 0.019 | 997.535
303.15 K, m1 = 0.02087 | 997.719
303.15 K, m1 = 0.02301 | 997.932
303.15 K, m1 = 0.02396 | 998.023
303.15 K, m1 = 0.02501 | 998.127
303.15 K, m1 = 0.02604 | 998.224
303.15 K, m1 = 0.02701 | 998.323
303.15 K, m1 = 0.02792 | 998.415
303.15 K, m1 = 0.02882 | 998.496
313.15 K, m1 = 0.017 | 993.889
313.15 K, m1 = 0.01785 | 993.972
313.15 K, m1 = 0.01889 | 994.065
313.15 K, m1 = 0.02086 | 994.259
313.15 K, m1 = 0.0216 | 994.332
313.15 K, m1 = 0.02288 | 994.456
313.15 K, m1 = 0.02376 | 994.546
313.15 K, m1 = 0.02492 | 994.655
313.15 K, m1 = 0.02586 | 994.742
313.15 K, m1 = 0.02688 | 994.842
313.15 K, m1 = 0.02763 | 994.913
313.15 K, m1 = 0.02902 | 995.047
